Experimental data published in ChEMBL document CHEMBL3044624, “Cycloate, an inhibitor of fatty acid elongase, modulates the metabolism of very-long-side-chain alkylresorcinols in rye seedlings” (Pest Manag Sci, 2009).

Assays:
Secale cereale [1] = assay: Change in alkylresorcinol homologue composition in dry shoots of green Secale cereale (rye) seedlings grown from compound-treated seeds at 29 +/-2 degC assessed as C19:1 content at 46 uM by GC/EI-MS analysis (Rvb =0.17 mg/kg dry weight); type: functional
Secale cereale [2] = assay: Toxicity against green Secale cereale (rye) seedlings assessed as fresh biomass of seedling grown at 22 +/-2 degC at 46 uM measured at 5 days after compound-treated seed germination (reference value: 20.76 +/-0.81 g); type: organism-based; details: in vivo, 120 h
Secale cereale [3] = assay: Change in alkylresorcinol homologue composition in dry shoots of etiolated Secale cereale (rye) seedlings grown from compound-treated seeds at 29 +/-2 degC assessed as C19:1 content at 46 uM by GC/EI-MS analysis (Rvb =0.09 mg/kg dry weight); type: functional
Secale cereale [4] = assay: Toxicity against etiolated Secale cereale (rye) seedlings assessed as fresh biomass of seedling grown at 15 +/-2 degC at 46 uM measured at 5 days after compound-treated seed germination (reference value: 7.63 +/-0.12 g); type: organism-based; details: in vivo, 120 h
Secale cereale [5] = assay: Toxicity against etiolated Secale cereale (rye) seedlings assessed as fresh biomass of seedling grown at 22 +/-2 degC at 46 uM measured at 5 days after compound-treated seed germination (reference value: 21.43 +/-0.35 g); type: organism-based; details: in vivo, 120 h
Secale cereale [6] = assay: Change in alkylresorcinol homologue composition in dry shoots of green Secale cereale (rye) seedlings grown from compound-treated seeds at 29 +/-2 degC assessed as C25:0 content at 46 uM by GC/EI-MS analysis (reference value: 0.03 mg/kg dry weight); type: functional
Secale cereale [7] = assay: Change in alkylresorcinol homologue composition in dry shoots of etiolated Secale cereale (rye) seedlings grown from compound-treated seeds at 22 +/-2 degC assessed as C23:1 content at 46 uM by GC/EI-MS analysis (reference value: 0.04 mg/kg dry weight); type: functional
Secale cereale [8] = assay: Toxicity against green Secale cereale (rye) seedlings assessed as dry biomass of seedling grown at 29 +/-2 degC at 46 uM measured at 5 days after compound-treated seed germination (reference value: 2.32 +/-0.05 g); type: organism-based; details: in vivo, 120 h
Secale cereale [9] = assay: Change in alkylresorcinol homologue composition in dry shoots of green Secale cereale (rye) seedlings grown from compound-treated seeds at 29 +/-2 degC assessed as C15:0 content at 46 uM by GC/EI-MS analysis (reference value: 0.11 mg/kg dry weight); type: functional
Secale cereale [10] = assay: Change in alkylresorcinol homologue composition in dry shoots of green Secale cereale (rye) seedlings grown from compound-treated seeds at 29 +/-2 degC assessed as C23:0 content at 46 uM by GC/EI-MS analysis (reference value: 0.08 mg/kg dry weight); type: functional
Secale cereale [11] = assay: Change in alkylresorcinol homologue composition in dry shoots of etiolated Secale cereale (rye) seedlings grown from compound-treated seeds at 15 +/-2 degC assessed as C15:0 content at 46 uM by GC/EI-MS analysis (reference value: 0.43 mg/kg dry weight); type: functional
Secale cereale [12] = assay: Change in alkylresorcinol homologue composition in dry shoots of green Secale cereale (rye) seedlings grown from compound-treated seeds at 22 +/-2 degC assessed as C17:1 content at 46 uM by GC/EI-MS analysis (reference value: 0.21 mg/kg dry weight); type: functional
Secale cereale [13] = assay: Change in alkylresorcinol homologue composition in dry shoots of etiolated Secale cereale (rye) seedlings grown from compound-treated seeds at 15 +/-2 degC assessed as C25:0 content at 46 uM by GC/EI-MS analysis (reference value: 0.11 mg/kg dry weight); type: functional
Secale cereale [14] = assay: Change in alkylresorcinol homologue composition in dry shoots of etiolated Secale cereale (rye) seedlings grown from compound-treated seeds at 29 +/-2 degC assessed as C23:0 content at 46 uM by GC/EI-MS analysis (reference value: 0.18 mg/kg dry weight); type: functional
Secale cereale [15] = assay: Change in alkylresorcinol homologue composition in dry shoots of etiolated Secale cereale (rye) seedlings grown from compound-treated seeds at 15 +/-2 degC assessed as C21:1 content at 46 uM by GC/EI-MS analysis (reference value: 0.34 mg/kg dry weight); type: functional
Secale cereale [16] = assay: Change in alkylresorcinol homologue composition in dry shoots of green Secale cereale (rye) seedlings grown from compound-treated seeds at 22 +/-2 degC assessed as C17:0 content at 46 uM by GC/EI-MS analysis (reference value: 0.93 mg/kg dry weight); type: functional
Secale cereale [17] = assay: Toxicity against etiolated Secale cereale (rye) seedlings assessed as dry biomass of seedling grown at 15 +/-2 degC at 46 uM measured at 5 days after compound-treated seed germination (reference value: 1.14 +/-0.01 g); type: organism-based; details: in vivo, 120 h
Secale cereale [18] = assay: Change in alkylresorcinol homologue composition in dry shoots of etiolated Secale cereale (rye) seedlings grown from compound-treated seeds at 15 +/-2 degC assessed as C17:1 content at 46 uM by GC/EI-MS analysis (reference value: 0.51 mg/kg dry weight); type: functional
Secale cereale [19] = assay: Change in alkylresorcinol homologue composition in dry shoots of green Secale cereale (rye) seedlings grown from compound-treated seeds at 15 +/-2 degC assessed as C25:0 content at 46 uM by GC/EI-MS analysis (reference value: 0.06 mg/kg dry weight); type: functional
Secale cereale [20] = assay: Change in alkylresorcinol homologue composition in dry shoots of etiolated Secale cereale (rye) seedlings grown from compound-treated seeds at 22 +/-2 degC assessed as C21:1 content at 46 uM by GC/EI-MS analysis (reference value: 0.12 mg/kg dry weight); type: functional
Secale cereale [21] = assay: Change in alkylresorcinol homologue composition in dry shoots of etiolated Secale cereale (rye) seedlings grown from compound-treated seeds at 29 +/-2 degC assessed as C15:0 content at 46 uM by GC/EI-MS analysis (reference value: 0.09 mg/kg dry weight); type: functional
Secale cereale [22] = assay: Change in alkylresorcinol homologue composition in dry shoots of etiolated Secale cereale (rye) seedlings grown from compound-treated seeds at 29 +/-2 degC assessed as C17:0 content at 46 uM by GC/EI-MS analysis (reference value: 0.48 mg/kg dry weight); type: functional
Secale cereale [23] = assay: Toxicity against green Secale cereale (rye) seedlings assessed as fresh biomass of seedling grown at 29 +/-2 degC at 46 uM measured at 5 days after compound-treated seed germination (reference value: 16.33 +/-0.24 g); type: organism-based; details: in vivo, 120 h
Secale cereale [24] = assay: Toxicity against green Secale cereale (rye) seedlings assessed as dry biomass of seedling grown at 15 +/-2 degC at 46 uM measured at 5 days after compound-treated seed germination (reference value: 1.64 +/-0.03 g); type: organism-based; details: in vivo, 120 h
Secale cereale [25] = assay: Change in alkylresorcinol content in dry shoots of green Secale cereale (rye) seedlings grown from compound-treated seeds at 15 +/-2 degC at 46 uM by thin layer chromatography (reference value: 4.15 +/-0.02 mg/kg dry weight); type: functional
Secale cereale [26] = assay: Change in alkylresorcinol homologue composition in dry shoots of green Secale cereale (rye) seedlings grown from compound-treated seeds at 15 +/-2 degC assessed as C19:0 content at 46 uM by GC/EI-MS analysis (reference value: 0.99 mg/kg dry weight); type: functional

## CCSC(=O)N(CC)C1CCCCC1 [CYCLOATE]
Secale cereale [1]
  Activity: 1.09 mg/kg
Secale cereale [2]
  Activity: 10.63 g
Secale cereale [3]
  Activity: 1.2 mg/kg
Secale cereale [4]
  Activity: 4.41 g
Secale cereale [5]
  Activity: 6.92 g
Secale cereale [6]
  Activity: 0.2 mg/kg
Secale cereale [7]
  Activity: 0.03 mg/kg
Secale cereale [8]
  Activity: 1.64 g
Secale cereale [9]
  Activity: 0.53 mg/kg
Secale cereale [10]
  Activity: 0.32 mg/kg
Secale cereale [11]
  Activity: 1.01 mg/kg
Secale cereale [12]
  Activity: 0.13 mg/kg
Secale cereale [13]
  Activity: 0.1 mg/kg
Secale cereale [14]
  Activity: 0.34 mg/kg
Secale cereale [15]
  Activity: 0.43 mg/kg
Secale cereale [16]
  Activity: 1.32 mg/kg
Secale cereale [17]
  Activity: 0.92 g
Secale cereale [18]
  Activity: 1.25 mg/kg
Secale cereale [19]
  Activity: 0.09 mg/kg
Secale cereale [20]
  Activity: 0.11 mg/kg
Secale cereale [21]
  Activity: 0.72 mg/kg
Secale cereale [22]
  Activity: 5.52 mg/kg
Secale cereale [23]
  Activity: 7.02 g
Secale cereale [24]
  Activity: 1.12 g
Secale cereale [25]
  Activity: 6.67 mg/kg
Secale cereale [26]
  Activity: 1.45 mg/kg
